Experimental data as given in US20230091810A1, “FIRST-IN-CLASS OF SHMT2 AND MTHFD2 INHIBITORS AS ANTITUMOR AGENTS” (Duquesne University of the Holy Spirit, priority 2017, published 2023).
pIC50: −log10 of the molar value. Like-named read-outs stand apart in the source and are kept apart here.

Columns and labels:
Format in all cases: cell-based, human
H460 cells [1] = test: targeted metabolomics with [2,3,3-2H]serine tracer, H460 cells; settings: 10 µM drug
Excerpt: Identification of the mitochondrial enzyme target for AGF291, AGF320, and AGF347 by targeted metabolomics. […] The cells were processed for LC-MS analyses of total serine, and of M+3, M+2, M+1, and M+0 (unlabeled) serine (where M+n represents species with n deuterium atoms). The results with the drug-treated cells were compared to those for untreated cells. For WT HCT116 cells, the results were compared to those for SHMT2 KO, MTHFD2 KO, and SHMT1 KO cells (KO of SHMT2, MTHFD2, and SHMT1, respectively (20)). For H460 cells, controls included non-targeted control (NTC) and SHMT2 shRNA knockdown (KD) cells.
Targeted Metabolomics. Targeted metabolomics were performed essentially as previously described (47, 53). Briefly, cells (H460, HCT116, MIA PaCa-2) (1 million cells /dish for vehicle-treated samples, 1.5 million cells/dish for drug-treated samples) were seeded in triplicate 60 mm dishes in 5 ml of folate-free RPMI (contains glycine and unlabeled serine) supplemented with 10% dialyzed fetal bovine serum, 1% penicillin/streptomycin, 2 mM L-glutamine, and 25 nM leucovorin. Cells were allowed to adhere for 24 h. […] After 16 h, the cells were washed with PBS (3×), the media was replaced with folate- and serine-free culture media (containing glycine) supplemented with 10% dialyzed fetal bovine serine, 25 nM leucovorin, and [2,3,3-^2H]serine (250 µM), including 10 µM drug or DMSO vehicle. The cells were incubated for 24 h. All incubations were at 37° C. with 5% CO2. The media was aspirated, and cells were washed (3×) rapidly (< 30 s) with 5 mL ice-cold PBS; metabolism was quickly quenched with methanol:water (80:20) at -80° C. Cells were allowed to rock on dry ice for 10 min to cover the entire dish with 80:20 methanol:water (at -80° C.), then harvested by scraping and pipetting into 1.5 mL Eppendorf tubes. […] The supernatants were collected and analyzed by reversed-phase ion-pairing chromatography coupled with negative-mode electrospray-ionization high-resolution mass spectrometry on a stand-alone Orbitrap (ThermoFisher Exactive). […]

MIA PaCa-2 (PaC) = test: proliferation assay, MIA PaCa-2 pancreatic cancer cells; settings: folate-/glycine-free RPMI1640 with 25 nM leucovorin, 96 h, read-out: IC50s (SE) MIA PaCa-2 (PaC)
Method: (§1) Proliferation assays were performed with engineered Chinese hamster ovary (CHO) cell lines R2 (transporter-null), PC43-10 (expresses RFC only), RT16 (FRα only), and R2/PCFT4 (PCFT only) cultured in folate-/glycine-free RPMI1640 supplemented with 25 nM leucovorin. Additional results are shown for HCT116 (colon tumor cells (CTC)), IGROV1 (epithelial ovarian cancer (EOC) cells), H460 (non-small cell lung cancer (NSCLC) cells), MIAPaCa-2 (pancreatic cancer (PaC) cells), and HPAC (PaC).
(§2) Cell culture and proliferation/protection assays. The HCT116 cell lines including the serine hydroxymethyltransferase (SHMT) 1, SHMT2, and methylene THF dehydrogenase 2 (MTHFD2) knockout (KO) cells were previously described (47,53). The H460 cell line was obtained from the American Type Culture Collection (Manassas, VA), whereas the MIA PaCa-2 cells were provided by Dr. Yubin Ge (Karmanos Cancer Institute). Cell lines were verified by STR analysis by Genetica DNA Laboratories (Burlington, NC). MTXRIIOua^R2-4 (i.e. R2) Chinese hamster ovary (CHO) cells were generously provided by Dr. Wayne Flintoff (University of Western Ontario) (54). From this parental R2 cell line, human RFC and PCFT were individually transfected to generate the isogenic CHO cell lines designated PC43-10 (RFC) and R2/PCFT4 (PCFT) (55-57). Human tumor cell lines were cultured in folate-free RPMI supplemented with 10% dialyzed fetal bovine serum (Sigma-Aldrich), 1% penicillin/streptomycin solution, 2 mM L-glutamine, and 25 nM leucovorin in a humidified atmosphere at 37° C. in the presence of 5% CO2 and 95% air. The CHO cell lines were cultured in alpha-minimal essential medium (alpha-MEM) supplemented with 10% bovine calf serum, 1% penicillin/streptomycin solution, and 2 mM L-glutamine. Additionally, the transfected CHO cell lines (i.e. R2/PCFT4 and PC43-10) were maintained under continuous selection with 1 mg/ml of G418.
(§3) For proliferation assays of the HCT116, H460, and MIA PaCa2 tumor cell lines, the cells were plated in 96-well plates in an identical manner to the CHO experiments, except that the maximal drug concentration was increased to 10 µM. Glycine/nucleoside protection experiments in CHO and tumor cell lines were performed in folate- and glycine-free RPMI 1640/10% dialyzed fetal bovine serum supplemented with 25 nM leucovorin without additions, or in the presence of adenosine (60 µM), thymidine (10 µM), glycine (130 µM) and/or 5-aminoimidazole-4-carboxamide (AICA) (320 µM). Growth of metabolite-treated cells was normalized to controls treated with metabolites and vehicle (i.e., DMSO) both singly and in combination. Treatments with all metabolites were performed in parallel on the same plate for a given drug.

H460 (NSCLC) = test: proliferation assay, H460 non-small cell lung cancer cells; settings: folate-/glycine-free RPMI1640 with 25 nM leucovorin, 96 h, read-out: IC50s (SE) H460 (NSCLC)
Method: as §1
as §2, with “G418. […]” for “G418.”

HPAC (PaC) = test: proliferation assay, HPAC pancreatic cancer cells; settings: folate-/glycine-free RPMI1640 with 25 nM leucovorin, read-out: IC50s (SE) HPAC (PaC)
Method: as §1, §3

HCT116 (CTC) = test: proliferation assay, HCT116 colon tumor cells; settings: folate-/glycine-free RPMI1640 with 25 nM leucovorin, 96 h, read-out: IC50s (SE) HCT116 (CTC)
Method: as §1
as §2, with “G418. […]” for “G418.”

H460 cells [2] = test: glycine/nucleoside protection of growth inhibition in H460 cells; settings: for protection from growth inhibition by combined adenosine and glycine: adenosine 60 µM plus glycine 130 µM; for protection from growth inhibition by glycine or adenosine alone: glycine 130 µM or adenosine 60 µM, singly
Method: We also tested the protective effects of AICA (320 µM) which is metabolized to AICAR (ZMP) (AICARFTase substrate), thus circumventing the GARFTase step in de novo purine biosynthesis (27) (see FIG. 1). […] Analogous results were obtained with HCT116 and MIA PaCa-2 tumor cells (see FIG. 14).
as §3

Compound	dTTP isotope distribution from [2,3,3-2H]serine (H460 cells [1])	pIC50 (MIA PaCa-2 (PaC))	pIC50 (H460 (NSCLC))	pIC50 (HPAC (PaC))	pIC50 (HCT116 (CTC))	protection from growth inhibition by combined adenosine and glycine (H460 cells [2])	protection from growth inhibition by glycine or adenosine alone (H460 cells [2])	pIC50 (MIA PaCa-2 (PaC); Homo sapiens, MIA PaCa-2)	pIC50 (H460 (NSCLC); Homo sapiens, NCI-H460)	pIC50 (HPAC (PaC); Homo sapiens, HPAC)	pIC50 (HCT116 (CTC); Homo sapiens, HCT-116)	reversal of growth inhibition by AICA (with glycine) (H460 cells [2]; AICA 320 µM with glycine)
(2-amino-4-oxo-3,4-dihydro-5H-pyrrolo[3,2-d]pyrimidin-5-yl)butyl)-2-fluorobenzoyl)-L-glutamic acid [AGF347]	M+1 dTTP without M+2 dTTP	5.86	6.67	6.12	6.36	substantially protective	neither glycine nor adenosine alone was fully protective					
Nc1nc2ccn(CCCc3ccc(C(=O)N[C@@H](CCC(=O)O)C(=O)O)cc3)c2c(=O)[nH]1 [AGF291]	M+1 dTTP without M+2 dTTP					substantially protective	neither glycine nor adenosine alone was fully protective	5.44	6.34	6.52	5.64	
Nc1nc2ccn(CCCCCc3ccc(C(=O)N[C@@H](CCC(=O)O)C(=O)O)s3)c2c(=O)[nH]1 [AGF320]	M+1 dTTP without M+2 dTTP	5.64	6.24	6.72	6.13	substantially protective	neither glycine nor adenosine alone was fully protective					modestly (and incompletely) reversed
